# From patent US20250123267A1, “INHIBITORS OF MICROTUBULE POLYGLUTAMYLATION IN MITOSIS FOR USE AS A MEDICAMENT” (FUNDACIÓ CENTRE DE REGULACIÓ GENÒMICA, priority 2021, published 2025)
# Assays:
# Format in all cases: in vivo, Danio rerio
# zebrafish embryos [1] = experiment: Chromosome segregation in blastula stage zebrafish embryos (live and fixed imaging)
# Protocol: (§1) Morpholino antisense oligonucleotides were designed and purchased from Gene Tools, LLC. To inhibit ttll11 we used a blocking translation SEQ ID NO: 22 MO ([…]) and a standard control SEQ ID NO: 23 MO ([…]) as a negative control. We injected 2.8 ng of morpholino into one-cell stage embryos.
# Zebrafish embryos at the sphere stage (2.5-4 hpf) were dechorionated and incubated overnight at RT shacking in the microtubule fixative solution (20). The MT-fixative was discarded, and the embryos were put in methanol at −20° C. overnight. After fixation was completed zebrafish embryos were transferred in a clean tube and washed 3 times during 5 min with tergitol at room temperature for rehydration. Embryos were then moved to a well of a 96-well plate and an overnight wash with the anti-autofluorescence buffer (PBS 1×, 100 mM NaBH4) was performed at RT gently shacking. Buffer in the well was changed with TBS 1× for 5 extensive washes.
# Embryos underwent the blocking step with TBS 1× with 2% BSA for 30 minutes RT gently shacking. Anti-polyE (1.1 μg/ml, home-made) and -β-tubulin (clone E7; Hybridoma Bank at University of Iowa) primary antibodies were added both at 1:200 dilution and left ON at 4° C. gently shacking. […]
# Fixed embryos were imaged in glass bottom Mattek dishes using a 63× oil-immersion 1.4 NA objective on a TCS SP5 inverted Leica confocal microscope. Laser intensity used changed through experiments according to the tubulin levels detected.
# For zfTTLL11 localization experiments zebrafish eggs were fertilized, collected and microinjected with zfTTLL11 mRNA with a micromanipulator (M3301R, WPI (World precision instruments). The quantity injected are relative to the ones specified in “Morpholinos, mRNA synthesis and microinjection” section, according to de experiment. Embryos at sphere stage were manually dechorionated and moved in a tube containing low melting agarose at 42° C. diluted in TBS 1× and immediately in a Mattek dish with 7 mm diameter glass bottom and oriented with epithelial layer cells toward the glass slide before the agarose solidified. […]
# zebrafish embryos [2] = experiment: Embryonic lethality of morpholino injected zebrafish embryos; conditions: first 4 hours of development
# Protocol: as §1
# (§2) All capped mRNAs were synthesized using mMessage mMachine SP6 (Ambion, AM1340M). For the rescue experiments, […] of ttll11 mRNA was injected together with the indicated MO. […] of E466G mRNA (ttll11 mutated version) was injected together with the indicated MO as a negative control of the rescue experiments. GFP-Ttll11 mRNA was injected into one-cell stage embryos to visualize protein localization.
# zebrafish embryos [3] = experiment: Morphological zebrafish analysis at 36 hpf after morpholino injection
# Protocol: as §1, §2
# Zebrafish embryos at 36 hpf were anaesthetized with tricaine methane sulfonate (MS-222, Sigma Aldrich) The morphological phenotype was evaluated on site with an Olympus SZX16 scope equipped with an Olympus DP73 camera. Representative images were analyzed with ImageJ.
# [4] = 36 hpf, injected at one-cell stage
substance,measurement,setting,value
"MO-1: blocking translation morpholino against zebrafish ttll11, SEQ ID NO: 22 (CGGCTGATTTGTTATCTCATCTAGG) (all phosphorodiamidate morpholino (PMO))",embryos with at least one anaphase cell with a lagging chromosome,"zebrafish embryos [1]; blastula stage, 4D time-lapse imaging",Most
same,chromosome segregation fidelity in fixed embryos,"zebrafish embryos [1]; fixed embryos, anaphase cells with lagging chromosomes",compromised
same,cells with micronuclei,zebrafish embryos [1]; injected embryos,many cells with micronuclei
same,embryonic lethality,zebrafish embryos [2],increase of embryonic lethality
same,phenotype Frequency Mild (%),zebrafish embryos [3]; [4],28.6%
same,phenotype Frequency Normal (%),zebrafish embryos [3]; [4],14.3%
same,phenotype Frequency Severe (%),zebrafish embryos [3]; [4],57.1%
same,embryos with developmental defects,"zebrafish embryos [3]; injected embryos, mild tilted tails to gross abnormalities",60%
